Data taken from patent EP0569598A1, “BENZOXAZINONE DERIVATIVE” (JAPAN TOBACCO INC., priority 1991, dated 1993).

Assays:
[1] = test system: neutrophiles from the human peripheral blood; test: Human neutrophile chemotaxis suppressing activity (fMLP, chemotaxis chamber); type: cell-based; settings: Concentration 12.5 µM, 10-⁷M fMLP, one hour at 37°C
Description: The neutrophile fraction (60% percoal fraction having neutrophile purity of 90% or more) was taken from the human peripheral blood by means of percoal density gradient centrifugation at 2300 rpm for 20 minutes.
An intercell having a pore diameter of 5 µm, containing 8 x 10⁵ of neutrophiles and the compound of the present invention adjusted in various concentrations was placed in each well of a chemotaxis chamber (KURABO), in which has been added 1300 µl of a medium containing 10-⁷M of formylmethionyl-leucyl-phenylalanine (fMLP), which is a neutrophile chemotaxis factor. After incubating for one hour at 37°C in an incubator containing 5% carbon dioxide, the number of cells migrating from the upper side of the intercell membrane into the lower side of the membrane in the chamber was counted by the following method. That is, the lower side surface of the intercell membrane was washed with PBS for 4 times and fixed with methanol and dyed with hematoxylin-eosin solution. The membrane was removed from the intercell and placed on a slide, dried in air, followed by sealing with Canada balsam. The cell number was microscopically counted in 5 visual fields. Taking average number of the five fields, the average was employed as the number of migrating cells. The value subtracting the migrating cell number in a control experiment containing no fMLP from the cell number in an experiment containing no the compound of the present invention was regarded as 100, the chemotaxis suppressing activity was determined as the following formula: Neutrophilic chemotaxis suppressing activity (%) [formula] = 100 - A/B x 100 [formula] = 100 - (C - D)/(E-D) x 100 [formula] Where: • A: chemotaxis measured in the experiment containing the compound of the present invention; • B: chemotaxis measured in the experiment not containing the compound of the present invention • C: the number of migrating cells measured in the experiment containing both the compound of the present invention and fMLP. • D: the number of migrating cells in the experiment containing neither the compound of the present invention nor fMLP. • E: the number of migrating cells in the experiment containing only fMLP.

human cathepsin G (HCG) = target: T1, human cathepsin G (HCG) (Homo sapiens, UniProt P08311); test: HCG inhibitory activity (synthetic substrate, pNA release); type: biochemical; settings: pH 7.5; HCG 50 nM, substrate 0.5 mM; read-out: IC₅₀ value HCG
T1 construct: purchased Cosmo Bio Inc
T1 sequence (P08311 21-244): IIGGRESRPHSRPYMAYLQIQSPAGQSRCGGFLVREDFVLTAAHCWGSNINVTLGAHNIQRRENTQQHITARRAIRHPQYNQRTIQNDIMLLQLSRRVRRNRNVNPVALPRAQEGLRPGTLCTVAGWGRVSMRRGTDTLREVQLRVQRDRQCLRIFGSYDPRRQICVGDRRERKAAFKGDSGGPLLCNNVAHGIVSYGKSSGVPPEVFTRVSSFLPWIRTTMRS
Description: (§1) Activities of the Benzoxazine derivatives of the present invention against human leukocyte elastase (HLE), human sputum elastase (HSE), human cathepsin G (HCG), bovine pancreatic α-chmotrypsin (CYT) and bovine pancreatic trypsin (TRY) were measured by the following method.
(§2) A test compound was dissolved in DMSO (for fluorometry) and prepared various concentration of the solution. To each concentration was added 2-fold volume of 0.2M Tris-HCl (pH8.6), thereby obtaining a test solution. Synthetic substrate (Funakoshi, L-1335) was dissolved in DMSO and 2-volume of 0.2M Tris-HCl (pH8.6) was added thereto, thereby obtaining a substrate solution. The reaction was performed using a microplate having 96 wells (Nunk). Six-time reactions were repeated for each concentration. One handred and forty µl of an enzyme solution containing 0.2M Tris-HCl (pH8.6), 30 µl of a test solution and 30 µl of a substrate solution per well of the microplate were respectively pre-incubated at 37°C for 10 minutes. After completion of the incubation, the enzyme solution was mixed with the test sample and incubated for 10 minutes and then the substrate solution was added to perform an enzyme reaction. The absorbance of released P-nitroanilide (PNA) was measured at the wave length of 405 nm by means of a microplate reader (MTP-100; CORONA), thereby determining the substrate decomposition. The rate of the substrate decomposition was shown as an average value of 6 repeated reactions. The inhibitory concentration of a test compound relative to the amount of the substrate decomposition in the reaction mixture without a test compound was regarded as an IC₅₀ value. The final concentration of HLE and a synthesized substrate in the reaction mixture were 5.63 nM and 0.2625 mM, respectively.
a) Enzyme obtaining route HCG was obtained from Cosmo Bio Inc.
The same method as in the measurement of HLE inhibitory activity was used except that a buffer solution (pH 7.5) was used. The final concentration of HCG and synthetic substrate (Funakoshi, L-1010) in a reaction mixture were 50 nM and 0.5 mM, respectively.

[2] = target: T2, bovine pancreatic α-chmotrypsin (CYT) (Bos taurus, UniProt P00766); test: CYT inhibitory activity (synthetic substrate, pNA release); type: biochemical; settings: pH 8.0; CYT 3.4 nM, substrate 0.273 mM; read-out: IC₅₀ value CYT
T2 construct: bovine pancreatic α-chmotrypsin (CYT); purchased Sigma Co., Ltd
Description: as §1, §2
a) Enzyme obtaining route CYT was obtained from Sigma Co., Ltd.
Substantially the same method as used in the measurement of the HLE inhibitory activity was used except that a buffer solution (pH 8.0) was used. The final concentration of CYT and synthetic substrate (Funakoshi, L-1010) in a reaction mixture were 3.4 nM and 0.273 mM, respectively.

## Cc1cccc2nc([C@@H](NC(=O)OCC(c3ccccc3)c3ccccc3)C(C)C)oc(=O)c12 [Compound 1, 2-[1(S)-[(2,2-diphenylethoxy-carbonyl)amino]-2-methylpropyl]-5-methyl-4H-3,1-benzoxazin-4-one]
[1]; experiment without compound regarded as 100
  Chemotaxis: 4.7
[1]; Homo sapiens, 1 h
  activity at 12.5 µM: 95.3%
Human cathepsin G (HCG)
  IC50: > 12500 nM
[2]
  IC50: 1400 nM
